Legend:
Format in all cases: biochemical
Btk = Btk (Homo sapiens, UniProt Q06187); assay: Btk kinase activity, TR-FRET assay; conditions: read-out: Btk (IC50)
Summary of the method: (§1)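 Enzyme (Btk 0.5 nM; Lck 6 nM) reacted 1 h with inhibitor, ATP at Km and biotin-peptide substrate in pH 7.4 buffer, 10% DMSO. Phosphopeptide detected by Eu-p-Tyr100 antibody plus streptavidin-APC (665/615 nm). IC50 calculated from fitted Ki(app) via ATP/Km correction plus half total enzyme.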

Lck = Lck (Homo sapiens, UniProt P06239); assay: Lck kinase activity, TR-FRET assay; conditions: read-out: LCK (IC50)
Chain of Lck (P06239 whole entry, species assumed): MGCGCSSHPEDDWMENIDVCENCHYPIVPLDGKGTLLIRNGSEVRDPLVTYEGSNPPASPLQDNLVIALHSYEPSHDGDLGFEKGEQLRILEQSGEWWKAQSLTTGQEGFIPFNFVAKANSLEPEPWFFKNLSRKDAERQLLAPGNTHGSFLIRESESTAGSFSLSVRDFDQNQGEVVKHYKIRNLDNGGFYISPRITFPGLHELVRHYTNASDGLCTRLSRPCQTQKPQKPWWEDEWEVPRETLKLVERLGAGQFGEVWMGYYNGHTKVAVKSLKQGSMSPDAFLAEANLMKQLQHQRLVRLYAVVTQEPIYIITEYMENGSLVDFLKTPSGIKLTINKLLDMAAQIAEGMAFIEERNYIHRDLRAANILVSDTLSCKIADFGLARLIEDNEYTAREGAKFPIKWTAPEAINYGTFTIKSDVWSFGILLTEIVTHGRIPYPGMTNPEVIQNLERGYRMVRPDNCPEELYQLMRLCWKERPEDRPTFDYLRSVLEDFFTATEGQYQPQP
Summary of the method: as §1

EGFR = EGFR (Homo sapiens, UniProt P00533); assay: Inhibition of a panel of kinases, in vitro HotSpot kinase assay: EGFR
Chain of EGFR (P00533 25-1210): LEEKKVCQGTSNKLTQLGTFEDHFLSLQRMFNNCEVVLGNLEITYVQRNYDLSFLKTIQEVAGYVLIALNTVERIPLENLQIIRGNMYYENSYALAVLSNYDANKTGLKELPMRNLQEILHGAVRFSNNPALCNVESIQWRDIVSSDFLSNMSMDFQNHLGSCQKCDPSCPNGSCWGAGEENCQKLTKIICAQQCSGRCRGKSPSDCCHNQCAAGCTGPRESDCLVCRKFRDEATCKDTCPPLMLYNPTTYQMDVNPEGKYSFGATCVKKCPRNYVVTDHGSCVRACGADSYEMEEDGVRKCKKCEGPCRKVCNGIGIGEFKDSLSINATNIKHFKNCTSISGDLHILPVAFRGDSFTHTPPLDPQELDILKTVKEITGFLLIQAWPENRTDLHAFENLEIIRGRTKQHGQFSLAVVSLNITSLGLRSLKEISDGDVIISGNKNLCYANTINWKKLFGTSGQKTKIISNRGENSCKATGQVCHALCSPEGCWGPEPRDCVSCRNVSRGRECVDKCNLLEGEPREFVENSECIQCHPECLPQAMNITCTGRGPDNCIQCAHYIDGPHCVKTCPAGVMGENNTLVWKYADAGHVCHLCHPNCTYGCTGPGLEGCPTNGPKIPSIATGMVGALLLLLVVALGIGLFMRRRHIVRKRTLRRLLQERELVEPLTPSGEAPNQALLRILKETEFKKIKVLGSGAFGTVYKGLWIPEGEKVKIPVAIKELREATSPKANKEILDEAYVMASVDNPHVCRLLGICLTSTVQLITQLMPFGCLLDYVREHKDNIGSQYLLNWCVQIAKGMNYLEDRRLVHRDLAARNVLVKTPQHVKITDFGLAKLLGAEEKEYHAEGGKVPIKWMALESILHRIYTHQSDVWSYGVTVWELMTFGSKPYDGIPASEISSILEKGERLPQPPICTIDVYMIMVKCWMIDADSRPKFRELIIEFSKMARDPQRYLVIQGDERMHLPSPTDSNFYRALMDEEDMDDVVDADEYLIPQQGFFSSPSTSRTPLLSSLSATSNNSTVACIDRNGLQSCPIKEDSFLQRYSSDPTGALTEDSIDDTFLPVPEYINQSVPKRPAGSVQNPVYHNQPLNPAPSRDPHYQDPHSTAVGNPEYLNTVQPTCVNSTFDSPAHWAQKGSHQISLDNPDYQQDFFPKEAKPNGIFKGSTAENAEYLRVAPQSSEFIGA
Method: (§2) The degree of inhibition of a panel of kinases is determined using the in vitro HotSpot kinase assay (purified enzymes, ^33P-ATP, an appropriate substrate and 1 uM ATP).

JAK3 = molecular target: T1, JAK3 (Homo sapiens, UniProt P52333); assay: Inhibition of a panel of kinases, in vitro HotSpot kinase assay: JAK3
T1 sequence (P52333 1-1124): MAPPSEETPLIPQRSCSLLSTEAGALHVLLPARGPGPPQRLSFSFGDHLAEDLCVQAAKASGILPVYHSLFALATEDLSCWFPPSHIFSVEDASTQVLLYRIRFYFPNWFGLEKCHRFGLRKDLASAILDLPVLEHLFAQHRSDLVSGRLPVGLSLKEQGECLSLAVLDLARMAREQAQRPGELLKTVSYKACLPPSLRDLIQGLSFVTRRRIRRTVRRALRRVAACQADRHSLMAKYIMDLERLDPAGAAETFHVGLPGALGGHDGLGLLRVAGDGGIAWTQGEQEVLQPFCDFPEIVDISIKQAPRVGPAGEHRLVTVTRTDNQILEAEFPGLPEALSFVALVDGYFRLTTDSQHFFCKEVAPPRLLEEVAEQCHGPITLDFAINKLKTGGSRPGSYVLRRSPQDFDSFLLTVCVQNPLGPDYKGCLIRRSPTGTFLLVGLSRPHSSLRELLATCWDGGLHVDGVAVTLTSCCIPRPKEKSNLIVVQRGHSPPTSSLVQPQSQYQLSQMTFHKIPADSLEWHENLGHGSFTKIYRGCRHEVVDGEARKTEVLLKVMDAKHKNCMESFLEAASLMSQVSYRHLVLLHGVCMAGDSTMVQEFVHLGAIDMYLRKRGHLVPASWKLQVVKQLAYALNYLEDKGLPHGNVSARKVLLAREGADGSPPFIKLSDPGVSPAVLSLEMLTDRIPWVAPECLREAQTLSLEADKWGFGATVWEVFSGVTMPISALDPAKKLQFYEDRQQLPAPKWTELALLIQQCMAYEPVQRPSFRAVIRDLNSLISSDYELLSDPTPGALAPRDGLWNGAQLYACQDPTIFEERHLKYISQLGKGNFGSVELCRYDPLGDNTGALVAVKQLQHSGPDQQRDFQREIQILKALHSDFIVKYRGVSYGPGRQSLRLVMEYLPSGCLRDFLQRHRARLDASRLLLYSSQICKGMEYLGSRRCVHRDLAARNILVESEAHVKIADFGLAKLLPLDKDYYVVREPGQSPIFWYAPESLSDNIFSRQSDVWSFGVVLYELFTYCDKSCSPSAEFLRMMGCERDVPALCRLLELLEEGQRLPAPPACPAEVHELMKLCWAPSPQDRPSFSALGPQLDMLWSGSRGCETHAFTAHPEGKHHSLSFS
Method: as §2

Chain of Btk (Q06187 whole entry): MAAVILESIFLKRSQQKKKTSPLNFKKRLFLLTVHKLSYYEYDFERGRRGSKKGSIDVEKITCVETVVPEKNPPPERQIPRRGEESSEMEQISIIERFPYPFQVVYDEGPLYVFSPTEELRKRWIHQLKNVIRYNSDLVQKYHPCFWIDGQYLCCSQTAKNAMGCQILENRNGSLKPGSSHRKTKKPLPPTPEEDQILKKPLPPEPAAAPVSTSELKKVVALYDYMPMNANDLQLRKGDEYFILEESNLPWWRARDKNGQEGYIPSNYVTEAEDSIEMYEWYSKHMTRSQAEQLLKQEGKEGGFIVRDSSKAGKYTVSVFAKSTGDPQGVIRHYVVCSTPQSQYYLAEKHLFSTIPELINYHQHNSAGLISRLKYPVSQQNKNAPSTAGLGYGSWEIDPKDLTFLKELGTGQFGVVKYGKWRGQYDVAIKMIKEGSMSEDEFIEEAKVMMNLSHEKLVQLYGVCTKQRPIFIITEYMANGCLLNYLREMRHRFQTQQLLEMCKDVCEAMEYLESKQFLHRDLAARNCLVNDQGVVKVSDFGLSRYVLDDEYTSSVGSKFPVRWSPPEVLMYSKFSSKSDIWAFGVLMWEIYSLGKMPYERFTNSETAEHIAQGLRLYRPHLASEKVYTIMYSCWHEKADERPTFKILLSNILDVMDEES

With `CC#CC(=O)N1CCC[C@@H](Nc2n[nH]c3nccc(Oc4ccc(C(=O)Nc5cc(C)ccn5)cc4)c23)C1` [compound 280, (R)-4-(3-(1-but-2-ynoylpiperidin-3-ylamino)-1H-pyrazolo[3,4-b]pyridin-4-yloxy)-N-(4-methylpyridin-2-yl)benzamide] the IC50 (Btk) was under 0.1 µM, the IC50 (Lck) was 0.1 to 1 µM and the IC50 (EGFR) was over 10 µM. For the same compound, the IC50 (JAK3) was over 10 µM.

`COCC#CC(=O)N1CCC[C@@H](Nc2n[nH]c3nccc(Oc4ccc(C(=O)Nc5cc(C)ccn5)cc4)c23)C1` [compound 281, (R)-4-(3-(1-(4-methoxybut-2-ynoyl)piperidin-3-ylamino)-1H-pyrazolo[3,4-b]pyridin-4-yloxy)-N-(4-methylpyridin-2-yl)benzamide] was tested, and the IC50 (Btk) was under 0.1 µM, the IC50 (Lck) was 1 to 10 µM and the IC50 (EGFR) was 1 to 10 µM. The IC50 (JAK3) was 0.1 to 1 µM.

`Cc1ccnc(NC(=O)c2ccc(Oc3ccnc4[nH]nc(N[C@@H]5CCCN(C(=O)C#CCO)C5)c34)cc2)c1` [compound 282, (R)-4-(3-(1-(4-hydroxybut-2-ynoyl)piperidin-3-ylamino)-1H-pyrazolo[3,4-b]pyridin-4-yloxy)-N-(4-methylpyridin-2-yl)benzamide] was tested, and the IC50 (Btk) was under 0.1 µM, the IC50 (Lck) was 0.1 to 1 µM and the IC50 (EGFR) was 0.1 to 1 µM. It also gave an IC50 (JAK3) of 0.1 to 1 µM.

For `Cc1ccnc(NC(=O)c2ccc(Oc3ccnc4[nH]nc(N[C@@H]5CCCN(C(=O)C6(C)CCN(C)CC6)C5)c34)cc2)c1` [compound 283, (R)-4-(3-(1-(1,4-dimethylpiperidine-4-carbonyl)piperidin-3-ylamino)-1H-pyrazolo[3,4-b]pyridin-4-yloxy)-N-(4-methylpyridin-2-yl)benzamide], the IC50 (Btk) was under 0.1 µM, the IC50 (Lck) was 0.1 to 1 µM and the IC50 (EGFR) was over 10 µM. The IC50 (JAK3) was over 10 µM.

In the case of `Cc1ccnc(NC(=O)c2ccc(Oc3ccnc4[nH]nc(NC5CCN(C(=O)C6(C)CCN(C)CC6)CC5)c34)cc2)c1` [compound 284, 4-(3-(1-(1,4-dimethylpiperidine-4-carbonyl)piperidin-4-ylamino)-1H-pyrazolo[3,4-b]pyridin-4-yloxy)-N-(4-methylpyridin-2-yl)benzamide], the IC50 (Btk) is reported as 0.1 to 1 µM, the IC50 (Lck) is reported as 0.1 to 1 µM and the IC50 (EGFR) is reported as over 10 µM. It also gave an IC50 (JAK3) of over 10 µM.
